The results in this text go back to US20120094939A1, “ANTI-VIRAL COMPOUNDS, COMPOSITIONS AND METHODS” (priority 2007, published 2012).

Like-named read-outs stand apart in the source and are kept apart here.

In one data set the test system is Huh7/Rep-Feo cells. As to the kind of experiment: Primary HTS cell viability counter-screen (CellTiterGlo). Format: cell-based, human. To be noted: Table 2 antiviral hits of DOS set; approximately 10-50 μM, most at 33 μM; 48 hours. As for the experimental part:
(§1) Primary Screening-HTS. Information about the library of known bioactive compounds that was screened and the general automated HTS protocol is available at http://www.broad.harvard.edu/chembio/index.html (see FIG. 10 for list of primary HTS with known bioactives library). Based on the results of optimization experiments in the 384-well plate format, the general HTS protocol was adapted as follows. Unless otherwise indicated, cells were incubated at all times in a humidified environment with 5% CO2 at 37° C. The assay was initiated by plating 30 μL of medium containing 2000 cells/well into white 384-well opaque-bottom plates (Nunc, Rochester, N.Y.) using an automated plate filler (Bio-Tek uFiller; Winsooki, Vt.) and allowing the cells to adhere for 24 hours. One hundred nL of compound stock solutions in DMSO was transferred from stock plates into the 384-well assay plates using an automated pin-based compound transfer robot (CyBio CyBi-Well vario; Woburn, Mass.). The final compound concentration in each well was estimated to be approximately 10-50 μM, with most compounds at 33 μM. The wells contained 0.33% DMSO by volume. The cells were then incubated for another 48 hours. The luminescent signal from each plate was detected using an automated plate reader (Perkin-Elmer Envision 1; Wellesley, Mass.). This screen was performed in duplicate. For negative controls, entire DMSO-treated control plates were employed, in addition to DMSO-only control wells that were incorporated into each compound assay plate. The cells were assayed for luciferase activity using the Bright-Glo Luciferase assay system (Promega), following the manufacturer's instructions. As a counter-screen, cell viability was assessed using the CellTiterGlo Luminescent cell viability assay (Promega) following the manufacturer's instructions.
Computational Data Analysis-Primary Screening. For each replicate, a mock-treatment distribution based on the total population of mock (DMSO) controls in that replicate was built (FIG. 11). Each compound was independently assigned a sign (ie, “+” or “−”) Z-score. Z-scores are calculated by dividing each background-subtracted, compound-treated well by the global standard deviation. A global standard deviation of the background-subtracted, mock-treated wells is calculated over the entire experiment. This distribution was determined to be consistent with experimental noise observed under cell-based assay conditions. The resulting collection of continuousvalued Z-scores represents the primary data set to be used for further analysis. The composite Z-score was calculated as a vector projection of each Z-score in duplicate onto an imaginary line of perfect reproducibility. Reproducibility is the cosine of the angle between each Z-score and that imaginary line; it is dimensionless and ranges from −1 to +1. […] The primary data were analyzed using the commercial software packages Pipeline Pilot (SciTegic, San Diego, Calif.) and SpotFire (SpotFire, Inc., Somerville, Mass.). The means of the negative, DMSO-only controls were considered the zero point.
Primary Screening—HTS: Unless otherwise indicated, cells were incubated at all times in a humidified environment with 5% CO2 at 37° C. The assay was initiated by plating 30 μl of medium containing 2,000 cells/well into white 384-well opaque-bottom plates (Nunc; Rochester, N.Y.) using an automated plate filler (Bio-Tek μFiller; Winsooki, Vt.) and allowing the cells to adhere for 24 hours. 100 nl of compound stock solutions in DMSO were transferred from stock plates into the 384-well assay plates using an automated pin-based compound transfer robot (CyBio CyBi-Well vario; Woburn, Mass.). The final compound concentration in each well was estimated to be approximately 10-50 μM, with most compounds at 33 μM. The wells contained 0.33% DMSO by volume. The cells were then incubated for another 48 hours. […]
(Counterscreens check selectivity or assay interference.)

For data set [1], the system named is Huh7/Rep-Feo HCV replicon (HCV RNA replication). Format: cell-based, Hepatitis C virus (strain HCV—N, genotype 1b).
From the text: Development of the Huh7/Rep-Feo replicon assay. […] This replicon was derived from a chimpanzee infectious clone (strain HCV—N, genotype 1b). In this replicon, the structural genes have been replaced by a reporter gene. The chimeric reporter gene Feo encodes the firefly luciferase protein fused in-frame with neomycin phosphotransferase. This Huh7/Rep-Feo cell supports high levels of autonomous HCV RNA replication because it was derived from the HCV—N strain, which carries an adaptive mutation in NSSA that confers highlevel replication in tissue culture. Furthermore, the level of luciferase correlates well with levels of HCV RNA production, so that luciferase can be used as a reliable surrogate marker for HCV replication. The use of luciferase as a reporter permits quantitative and highthroughput detection of HCV replication levels. The specific use of firefly luciferase makes this replicon especially well-suited for automation, because the luciferase reagent can be added directly to the cell culture system prior to signal detection without the need for cell lysis, washing, or aspiration.
HCV Replicon System-Primary Screening. […] Briefly, this replicon harbors a subgenomic HCV genotype 1b sequence, fused to firefly luciferase, stably replicating under neomycin selection. Cells were propagated in Dulbecco's Modified Eagle's medium (DMEM) containing 10% fetal bovine serum (FBS) supplemented with 1% penicillin-streptomycin, and 500 μg of Geneticin (Invitrogen Corp., Carlsbad, Calif.)/mL. Cells were cultured in a 37° C., 5% CO2-humidified incubator for all experiments. To decrease day-today variability in the assay, a large homogenous population of subconfluent cells was passaged so that a similar lot of cells could be used throughout the HTS assay.
as §1
Computational Data Analysis-Primary Screening. For each replicate, a mock-treatment distribution based on the total population of mock (DMSO) controls in that replicate was built (FIG. 11).

Where [2] appears, read: Table 2 antiviral hits of DOS set, approximately 10-50 μM, most at 33 μM, 48 hours.

As to `C=CC[C@@H]1C=C[C@H](O/N=C2/[C@H]3CCn4c(=O)n(-c5ccccc5)c(=O)n4[C@H]3[C@H](O)[C@@H]3O[C@H]23)[C@@H](CO)O1` [BUCMLD-B10A7], the “C-CompZ, compositeZ score for cell viability assay” value (“C-CompZ, compositeZ score” for short) with Huh7/Rep-Feo cells was 1.1731. In addition, the “R-CompZ, compositeZ score for reporter gene assay” value (“R-CompZ, compositeZ score” below) in data set [1] was −3.3561.

Regarding `O=c1n(-c2ccccc2)c(=O)n2n1CC[C@@H]1/C(=N/OC[C@@H](O)COCc3ccco3)[C@H]3O[C@H]3[C@@H](O)[C@@H]12` [BUCMLD-B10A8], the “C-CompZ, compositeZ score” value in the data set on Huh7/Rep-Feo cells came to 1.1582. For the same molecule, in data set [1] (setting [2]), the “R-CompZ, compositeZ score” value is reported as −3.7511.

In the case of `C[C@H](O/N=C1/[C@H]2CCn3c(=O)n(-c4ccccc4)c(=O)n3[C@H]2[C@H](O)[C@@H]2O[C@H]12)c1cn([C@H](CO)Cc2ccccc2)nn1` [BUCMLD-B10A10], in the data set with Huh7/Rep-Feo cells, the “C-CompZ, compositeZ score” value was 1.9213. The “R-CompZ, compositeZ score” value in data set [1] (setting [2]) is −2.7028.

Take `CC(=O)OC[C@H]1O[C@@H](O/N=C2/[C@H]3CCn4c(=O)n(-c5ccccc5)c(=O)n4[C@H]3[C@H](O)[C@@H]3O[C@H]23)[C@H](OC(C)=O)[C@@H](OC(C)=O)[C@@H]1OC(C)=O` [BUCMLD-B10A13]: in the data set on Huh7/Rep-Feo cells, the “C-CompZ, compositeZ score” value is given as 1.0278. Besides, the “R-CompZ, compositeZ score” value in data set [1] (setting [2]) is given as −2.8629.

`C[C@@H](O/N=C1/[C@H]2CCn3c(=O)n(-c4ccccc4)c(=O)n3[C@H]2[C@H](O)[C@@H]2O[C@H]12)c1cn([C@H](CO)Cc2ccccc2)nn1` [BUCMLD-B10A14]: the “C-CompZ, compositeZ score” value with Huh7/Rep-Feo cells is recorded as 1.128. For the same molecule, the “R-CompZ, compositeZ score” value in data set [1] (setting [2]) is given as −3.5069.

With `COc1ccc(O[C@H]2C=C[C@@H](c3ccccc3)O[C@@H]2CO/N=C(\C)CCN2CCc3nc(-c4ccccc4)c(-c4ccccc4)cc3C2)cc1` [BUCMLD-B13A1], in the data set on Huh7/Rep-Feo cells, the “C-CompZ, compositeZ score” value was −0.2035. Further, the “R-CompZ, compositeZ score” value in data set [1] (setting [2]) was −3.1824.

Consider `C#CCCCO/N=C1/[C@H]2CCn3c(=O)n(-c4ccccc4)c(=O)n3[C@H]2[C@H](O)[C@@H]2O[C@H]12` [BUCMLD-XL-184], for which the “C-CompZ, compositeZ score” value with Huh7/Rep-Feo cells is reported as −0.1464. Also, the “R-CompZ, compositeZ score” value in data set [1] (setting [2]) is −3.0142.

With `C#CCCCO/N=C1/[C@H]2CCn3c(=O)n([C@@H](CC)c4ccccc4)c(=O)n3[C@H]2[C@H](O)[C@@H]2O[C@H]12` [BUCMLD-XL-189], the “C-CompZ, compositeZ score” value in the data set on Huh7/Rep-Feo cells was found to be 0.2217. In addition, in data set [1] (setting [2]), the “R-CompZ, compositeZ score” value is listed as −3.4882.

As to `CC[C@@H](c1ccccc1)n1c(=O)n2n(c1=O)[C@H]1[C@H](O)[C@@H]3O[C@@H]3/C(=N\OC[C@@H](O)COCc3ccco3)[C@H]1CC2` [BUCMLD-XL-190], the “C-CompZ, compositeZ score” value with Huh7/Rep-Feo cells amounted to 0.4558. In addition, in data set [1] (setting [2]), the “R-CompZ, compositeZ score” value is recorded as −2.5928.

Regarding `O=C1C2C=C(Br)C(CC2OCCCCCCO)[C@@]12CO2` (stereo partly drawn) [SM_A1B2_1P32], the “C-CompZ, compositeZ score” value with Huh7/Rep-Feo cells is 0.9925. Moreover, the “R-CompZ, compositeZ score” value in data set [1] (setting [2]) was −3.252.

Regarding `O=C1C2C=C(Br)C(CC2c2ccccc2)[C@@]12CO2` (stereo partly drawn) [SM_A1B5_2P24], the “C-CompZ, compositeZ score” value in the data set with Huh7/Rep-Feo cells is recorded as −0.856. Further, the “R-CompZ, compositeZ score” value in data set [1] (setting [2]) is −3.38.

On to `COC12C=C(Br)C(CC1c1cccc(C)c1)[C@@]1(CO1)C2=O` (stereo partly drawn) [SM_A4B6_2P123], for which, in the data set with Huh7/Rep-Feo cells, the “C-CompZ, compositeZ score” value is −0.795. For the same molecule, the “R-CompZ, compositeZ score” value in data set [1] (setting [2]) is −3.4419.

As for `O=C1C2C=C(I)C(CC2OCCCCCCO)[C@@]12CO2` (stereo partly drawn) [SM_A5B2_2P142], the “C-CompZ, compositeZ score” value with Huh7/Rep-Feo cells was 0.5666. The “R-CompZ, compositeZ score” value in data set [1] (setting [2]) is −2.7176.

Take `O=C1C2C=C(I)C(CC2c2ccccc2)[C@@]12CO2` (stereo partly drawn) [SM_A5B5_2P118]: the “C-CompZ, compositeZ score” value in the data set on Huh7/Rep-Feo cells was −0.4963. The “R-CompZ, compositeZ score” value in data set [1] (setting [2]) is listed as −3.6565.

Take `C[C@@]12COC[C@]13C=C(Br)C(C2)[C@@]1(CO1)C3=O` [SM_A7C2_2P155]: the “C-CompZ, compositeZ score” value in the data set with Huh7/Rep-Feo cells stood at 0.6028. In addition, in data set [1] (setting [2]), the “R-CompZ, compositeZ score” value is reported as −2.6813.
